From the supplement of paper PMC10307832

Assays:
Assay in all cases: relative viability (nuclei count vs DMSO), 5 days (fraction); higher = more cells survive
Erlotinib + Phenformin = compound: C#Cc1cccc(Nc2ncnc3cc(OCCOC)c(OCCOC)cc23)c1 [Erlotinib] + N=C(N)NC(=N)NCCc1ccccc1 [Phenformin] (partner 250 µM)
In short: (§1)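 Dosing by pin tool came one day after lung cancer cell lines were seeded in 1536-well plates, using either one drug or a fixed anchor-drug dose plus five library-drug doses (not always all listed) in √10 steps. After 5 days, nuclei were counted on 4× images. Relative viability is treated-well nuclei count divided by vehicle-well nuclei count, and values are medians of duplicate plates.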

AT9283 + Luminespib = compound: O=C(Nc1c[nH]nc1-c1nc2ccc(CN3CCOCC3)cc2[nH]1)NC1CC1 [AT9283] + CCNC(=O)c1noc(-c2cc(C(C)C)c(O)cc2O)c1-c1ccc(CN2CCOCC2)cc1 [Luminespib] (partner 0.01 µM)
In short: as §1

Erlotinib + Linsitinib = compound: C#Cc1cccc(Nc2ncnc3cc(OCCOC)c(OCCOC)cc23)c1 [Erlotinib] + C[C@]1(O)C[C@@H](c2nc(-c3ccc4ccc(-c5ccccc5)nc4c3)c3c(N)nccn32)C1 [Linsitinib] (partner 1 µM)
In short: as §1

AT9283 + Decitabine = compound: O=C(Nc1c[nH]nc1-c1nc2ccc(CN3CCOCC3)cc2[nH]1)NC1CC1 [AT9283] + Nc1ncn([C@H]2C[C@H](O)[C@@H](CO)O2)c(=O)n1 [Decitabine] (partner 2 µM)
In short: as §1

AT9283 + AZD7762 = compound: O=C(Nc1c[nH]nc1-c1nc2ccc(CN3CCOCC3)cc2[nH]1)NC1CC1 [AT9283] + NC(=O)Nc1cc(-c2cccc(F)c2)sc1C(=O)N[C@H]1CCCNC1 [AZD7762] (partner 0.2 µM)
In short: as §1

Cell Line | relative viability (Erlotinib + Phenformin; first compound 0.02 µM) | relative viability (Erlotinib + Phenformin; first compound 0.2 µM) | relative viability (Erlotinib + Phenformin; first compound 0.6325 µM) | relative viability (Erlotinib + Phenformin; first compound 2 µM) | relative viability (AT9283 + Luminespib; first compound 0.003 µM) | relative viability (AT9283 + Luminespib; first compound 0.03 µM) | relative viability (AT9283 + Luminespib; first compound 0.09487 µM) | relative viability (AT9283 + Luminespib; first compound 0.3 µM) | relative viability (Erlotinib + Linsitinib; first compound 0.02 µM) | relative viability (Erlotinib + Linsitinib; first compound 0.2 µM) | relative viability (Erlotinib + Linsitinib; first compound 0.6325 µM) | relative viability (Erlotinib + Linsitinib; first compound 2 µM) | relative viability (AT9283 + Decitabine; first compound 0.003 µM) | relative viability (AT9283 + Decitabine; first compound 0.03 µM) | relative viability (AT9283 + Decitabine; first compound 0.09487 µM) | relative viability (AT9283 + Decitabine; first compound 0.3 µM) | relative viability (AT9283 + AZD7762; first compound 0.003 µM) | relative viability (AT9283 + AZD7762; first compound 0.03 µM) | relative viability (AT9283 + AZD7762; first compound 0.09487 µM) | relative viability (AT9283 + AZD7762; first compound 0.3 µM)
NCI-H1563 | 0.63 | 0.602 | 0.708 | 0.6 | 0.5 | 0.527 | 0.443 | 0.45 | 1.2 | 1.23 | 1.2 | 1.15 |  |  |  |  |  |  |  | 
HCC-366 | 0.599 | 0.661 | 0.601 | 0.567 |  |  |  |  | 0.752 | 0.52 | 0.574 | 0.564 | 0.337 | 0.299 | 0.141 | 0.0851 | 0.209 | 0.485 | 0.0684 | 0.0719
SW 1573 | 0.377 | 0.412 | 0.312 | 0.372 | 0.199 | 0.148 | 0.142 | 0.169 | 0.81 | 0.724 | 0.797 | 0.853 | 0.394 | 0.175 | 0.171 | 0.143 |  |  |  | 
LOU-NH91 | 0.449 | 0.481 | 0.44 | 0.473 | 0.321 | 0.353 | 0.358 | 0.32 | 0.592 | 0.544 | 0.487 |  | 0.83 | 0.77 | 0.522 | 0.509 | 0.735 | 0.669 | 0.479 | 0.444
NCI-H1299 |  |  |  |  |  |  |  |  | 1.07 | 0.968 | 1.04 | 0.956 |  |  |  |  |  |  |  | 
HCC-44 | 0.239 | 0.162 | 0.22 | 0.165 | 1.04 | 1.19 | 0.426 | 0.319 | 0.663 | 0.664 | 0.723 | 0.61 | 0.702 | 0.969 | 0.749 | 0.871 | 1.04 | 1.05 | 1.02 | 0.971
NCI-H1437 | 0.352 | 0.301 | 0.286 | 0.286 | 1.26 | 1.12 | 0.681 | 0.344 | 1.05 | 0.941 | 0.83 | 0.526 | 0.47 | 0.599 | 0.426 | 0.306 | 1.11 | 0.98 | 0.431 | 0.291
Calu-6 |  |  |  |  |  |  |  |  | 1.01 | 0.913 | 0.902 | 0.816 |  |  |  |  |  |  |  | 
NCI-H1623 | 0.559 | 0.528 | 0.227 | 0.264 | 0.466 | 0.559 | 0.437 | 0.37 |  |  |  |  |  |  |  |  |  |  |  | 
